Measurements published in the supplement of paper PMC10331698.
± gives the standard deviation of the averaged measurements.

Columns and labels:
Test in all cases: LOEC (log10 uM (lowest observed effect concentration))
[1] = compound: O=P(O)(O)CCC(F)(F)C(F)(F)C(F)(F)C(F)(F)C(F)(F)C(F)(F)C(F)(F)C(F)(F)F [((Perfluorooctyl)ethyl)phosphonic acid]
Procedure: (§1)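 BioMAP Diversity Plus panel in human primary cell co-cultures, 4 concentrations in duplicate blinded samples. Responses are log10 fold change versus DMSO control, processed with tcpl v2.1.0. A hit is called when responses at any concentration exceed the cutoff (the larger of 3*bmad or log10(1.2)); the lowest observed effect concentration (modl_ga, log10 uM) is reported for hits.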

[2] = compound: O=C(O)C(F)(F)C(F)(F)C(F)(F)C(F)(F)C(F)(F)C(F)(F)C(F)(F)C(F)(F)Cl [9-Chloro-perfluorononanoic acid]
Procedure: as §1

[3] = compound: O=S(=O)(O)C(F)(F)C(F)(F)C(F)(F)C(F)(F)C(F)(F)C(F)(F)C(F)(F)C(F)(F)F [Perfluorooctanesulfonic acid]
Procedure: as §1

[4] = compound: O=S(=O)(O)C(F)(F)C(F)(F)C(F)(F)C(F)(F)C(F)(F)C(F)(F)C(F)(F)C(F)(F)F [Potassium perfluorooctanesulfonate]
Procedure: as §1

[5] = compound: O=C(O)C(F)(F)OC(F)(F)C(F)(F)OC(F)(F)C(F)(F)C(F)(F)C(F)(F)F [Perfluoro-3,6-dioxadecanoic acid]
Procedure: as §1

[6] = compound: CNS(=O)(=O)C(F)(F)C(F)(F)C(F)(F)C(F)(F)C(F)(F)C(F)(F)C(F)(F)C(F)(F)F [N-Methylperfluorooctanesulfonamide]
Procedure: as §1

[7] = compound: Cn1cnc([N+](=O)[O-])c1Sc1ncnc2[nH]cnc12 [Azathioprine]
Procedure: as §1

[8] = compound: C=CC(=O)OCCC(F)(F)C(F)(F)C(F)(F)C(F)(F)F [2-(Perfluorobutyl)ethyl acrylate]
Procedure: as §1

[9] = compound: N=C(N)C(F)(F)C(F)(F)C(F)(F)C(F)(F)C(F)(F)C(F)(F)C(F)(F)F [Perfluorooctanamidine]
Procedure: as §1

[10] = compound: O=C(O)C(F)(F)C(F)(F)C(F)(F)C(F)(F)C(F)(F)C(F)(F)C(F)(F)C(F)(F)C(F)(F)C(F)(F)C(F)(F)C(F)(F)F [Perfluorotridecanoic acid]
Procedure: as §1

Test System: BE3C tPA up
- LOEC (log10 uM) [1]: 1.3

Test System: BE3C uPA down
- LOEC (log10 uM) [2]: 1.78
- LOEC (log10 uM) [3]: 1.78

Test System: BE3C uPAR down
- LOEC (log10 uM) [2]: 1.78

Test System: BE3C uPAR up
- LOEC (log10 uM) [4]: 1.54 ± 0.34

Test System: BF4T Eotaxin3 down
- LOEC (log10 uM) [2]: 0.801 ± 0.71
- LOEC (log10 uM) [5]: 0.845
- LOEC (log10 uM) [1]: 1.54 ± 0.34

Test System: BF4T ICAM1 down
- LOEC (log10 uM) [2]: 1.78

Test System: BF4T IL1a down
- LOEC (log10 uM) [2]: 1.78

Test System: BF4T IL8 down
- LOEC (log10 uM) [6]: 1.78

Test System: BF4T IL8 up
- LOEC (log10 uM) [5]: 1.07 ± 0.32

Test System: BF4T Keratin818 down
- LOEC (log10 uM) [2]: 1.78

Test System: BF4T MCP1 down
- LOEC (log10 uM) [2]: 0.801 ± 0.71
- LOEC (log10 uM) [5]: 0.573 ± 0.39

Test System: BF4T MMP1 down
- LOEC (log10 uM) [2]: 1.78

Test System: BF4T MMP3 up
- LOEC (log10 uM) [5]: 1.3

Test System: BF4T MMP9 down
- LOEC (log10 uM) [2]: 1.78

Test System: BF4T PAI1 down
- LOEC (log10 uM) [2]: 1.78

Test System: BF4T SRB down
- LOEC (log10 uM) [2]: 1.78

Test System: BF4T VCAM1 down
- LOEC (log10 uM) [2]: 1.3
- LOEC (log10 uM) [7]: 1.48

Test System: BF4T tPA down
- LOEC (log10 uM) [2]: 1.3

Test System: BF4T uPA down
- LOEC (log10 uM) [2]: 1.78

Test System: BT Bcell Proliferation down
- LOEC (log10 uM) [8]: 1.78
- LOEC (log10 uM) [1]: 1.78
- LOEC (log10 uM) [9]: 1.78
- LOEC (log10 uM) [7]: 1.48

Test System: BT Bcell Proliferation up
- LOEC (log10 uM) [2]: 1.78

Test System: BT PBMCCytotoxicity down
- LOEC (log10 uM) [8]: 1.54 ± 0.34

Test System: BT PBMCCytotoxicity up
- LOEC (log10 uM) [2]: 1.78
- LOEC (log10 uM) [5]: 1.78

Test System: BT sIgG down
- LOEC (log10 uM) [8]: 1.78
- LOEC (log10 uM) [7]: -0.0458

Test System: BT xIL2 down
- LOEC (log10 uM) [8]: 1.78
- LOEC (log10 uM) [7]: 1.48

Test System: BT xIL6 down
- LOEC (log10 uM) [8]: 1.78
- LOEC (log10 uM) [7]: 1.48

Test System: BT xIL17A down
- LOEC (log10 uM) [8]: 1.54 ± 0.34
- LOEC (log10 uM) [7]: 1.48

Test System: BT xIL17F down
- LOEC (log10 uM) [8]: 1.3
- LOEC (log10 uM) [7]: 1.48

Test System: BT xTNFa down
- LOEC (log10 uM) [8]: 1.3
- LOEC (log10 uM) [7]: 0.716 ± 0.34

Test System: CASM3C MIG down
- LOEC (log10 uM) [6]: 1.07 ± 0.32
- LOEC (log10 uM) [8]: 1.78

Test System: CASM3C Proliferation down
- LOEC (log10 uM) [7]: 1.48

Test System: CASM3C SAA up
- LOEC (log10 uM) [10]: 0.477 ± 0.68

Test System: CASM3C VCAM1 down
- LOEC (log10 uM) [6]: 0.801 ± 0.71
- LOEC (log10 uM) [8]: 1.78
- LOEC (log10 uM) [10]: 0.954
- LOEC (log10 uM) [7]: 1.48

Test System: IMphg CD40 down
- LOEC (log10 uM) [2]: 1.78
- LOEC (log10 uM) [10]: 1.48
- LOEC (log10 uM) [5]: 1.78
- LOEC (log10 uM) [7]: 1.48

Test System: IMphg CD69 down
- LOEC (log10 uM) [2]: 1.78
- LOEC (log10 uM) [5]: 1.78

Test System: IMphg ESelectin down
- LOEC (log10 uM) [6]: 0.845
- LOEC (log10 uM) [7]: 1.48

Test System: IMphg ESelectin up
- LOEC (log10 uM) [4]: 1.78
- LOEC (log10 uM) [1]: 1.78
- LOEC (log10 uM) [3]: 1.78

Test System: IMphg IL1a up
- LOEC (log10 uM) [6]: 1.54 ± 0.34

Test System: IMphg MCP1 down
- LOEC (log10 uM) [2]: 1.78

Test System: IMphg MCSF down
- LOEC (log10 uM) [7]: 1.48
